Test results taken from patent US20110105748A1, “Novel beta-phenyl-alpha-oxysubstituted propionic derivatives: process for its preparation and their use in the preparation of pharmaceutically important compounds” (priority 2001, published 2011).

Work on `CCOC(=O)[C@H](Cc1ccc(N)cc1)OCC` [Example 6, (S)-Ethyl 2-ethoxy-3-(4-aminophenyl)propionate] yielded a melting point of 74 to 76 °C.
